# Experimental data reported in patent US7692030B2, “Conjugates of artemisinin-related endoperoxides and hydrazone derivatives for the treatment of cancer” (University of Washington, priority 2006, dated 2010).
# How the values were obtained:
# [1] = system: DAOY medulloblastoma cells; experiment: DAOY medulloblastoma cells, MTT assay and light microscopy; type: cell-based; conditions: after 24 h treatment; each treatment had holo-Tf (20 μg/well)
# Experimental: The compound ART-Phe-Sal was tested on DAOY medulloblastoma cells using the MTT assay. DAOY Medulloblastoma cells (5,000 cells/200 μL) was seeded on a 96 well plate and incubated for 24 h at 37° C. Cell culture medium was removed after 24 h and 150 μL of medium with treatment was added. Each experimental treatment had holo-Tf (20 μg/well). Treatment assay was viewed under light microscope after 24 h.
# Treatment medium was removed after 48 h, and 100 μL of cell medium was added. MTT Reagent (10 μL, 12 mM) was added to each well. This solution was incubated at 37° C. for 4 h. Isopropanol (100 μL) was added to each well to lyse the cells, which were then incubated at 4° C. for 30 m. After incubation each well was plunged (3×200 μL) to ensure the cells were lysed. The incubated medium with MTT reagent was then centrifuged at 13,000 RPM in an eppendorph centrifuge for 3 minutes at room temperature. 100 μL of supernatant was read in a plate reader at λ=570 nm. FIG. 13 compares the effect of dihydroartemisinin (DHA) and ART-Phe-Sal on DAOY medulloblastoma cell line. The concentration of holo-Tf was 1.7 μM.
# human leukemia cells = conditions: cited from earlier work
Compound,cell shrinkage under light microscope [1],therapeutic index (toxicity towards cancer cells versus normal cells) (human leukemia cells)
"holo-Tf: Human holotransferrin (Sigma Chemicals), iron carrying protein added to the cells",Moderate cell shrinkage,–
C[C@@H]1CC[C@H]2[C@@H](C)C(=O)O[C@@H]3O[C@@]4(C)CC[C@@H]1[C@]32OO4 [Artemisinin],–,approximately 100
